Tested on: Puccinia recondita
Assay: Puccinia Test (wheat)/curative
Assay type: in vivo
Settings: curative, application rate 250 g/ha, evaluation 10 days after inoculation
Experimental: Puccinia Test (wheat)/curative Solvent: 25 parts by weight of N,N-dimethylacetamide Emulsifier: 0.6 part by weight of alkylaryl polyglycol ether To produce a suitable preparation of active compound, 1 part by weight of active compound is mixed with the stated amounts of solvent and emulsifier, and the concentrate is diluted with water to the desired concentration. To test for curative activity, young plants are sprayed with a conidia suspension of Puccinia recondita. The plants remain in an incubation cabin at 20° C. and 100% relative atmospheric humidity for 48 hours. The plants are then sprayed with the preparation of active compound at the stated application rate. The plants are placed in a greenhouse at a temperature of about 20° C. and a relative atmospheric humidity of about 80% to promote the development of rust pustules.

Row | Compound | efficacy
1 | CNC(=O)C(=NOCF)c1ccccc1COc1ccn(-c2ccc(Cl)cc2)n1 [Example 2, 2-[2-({[1-(4-chlorophenyl)-1H-pyrazol-3-yl]oxy}methyl)phenyl]-2-[(fluoromethoxy)imino]-N-methylacetamide] | ≥ 98%

Tested on: larvae of the mustard beetle (Phaedon cochleariae)
Assay: Phaedon Larvae Test
Assay type: in vivo
Settings: cabbage leaves (Brassica oleracea) dipped, concentration of active compound 1000 ppm
Experimental: Phaedon Larvae Test Solvent: 30 parts by weight of acetone Emulsifier: 1 part by weight of alkylaryl polyglycol ether To produce a suitable preparation of active compound, 1 part by weight of active compound is mixed with the stated amounts of solvent and emulsifier, and the concentrate is diluted with emulsifier-containing water to the desired concentration. Cabbage leaves (Brassica oleracea) are treated by being dipped into the preparation of active compound of the desired concentration and are populated with larvae of the mustard beetle (Phaedon cochleariae) while the leaves are still moist. After the desired period of time, the kill in % is determined. 100% means that all beetle larvae have been killed; 0% means that none of the beetle larvae have been killed.

Row | Compound | kill rate
2 | COC(=O)C(=NOCF)c1ccccc1COc1ccn(-c2ccc(Cl)cc2)n1 [Example 1, methyl 2-[2-({[1-(4-chlorophenyl)-1H-pyrazol-3-yl]oxy}methyl)phenyl]-2-[(fluoromethoxy)imino]acetate] | 100%

Tested on: green peach aphid (Myzus persicae)
Assay: Myzus Test
Assay type: in vivo
Settings: broad bean seedlings (Vicia faba) dipped, concentration of active compound 1000 ppm
Experimental: Myzus Test Solvent: 30 parts by weight of acetone Emulsifier: 1 part by weight of alkylaryl polyglycol ether To produce a suitable preparation of active compound, 1 part by weight of active compound is mixed with the stated amounts of solvent and emulsifier, […], and the concentrate is diluted with emulsifier-containing water to the desired concentrations. Broad bean seedlings (Vicia faba) infested by the green peach aphid (Myzus persicae) are dipped into a preparation of active compound of the desired concentration and placed in a dish made of plastic. After the desired period of time, the kill in % is determined. 100% means that all animals have been killed; 0% means that none of the animals have been killed.

Row | Compound | kill rate
3 | COC(=O)C(=NOCF)c1ccccc1COc1ccn(-c2ccc(Cl)cc2)n1 [Example 1, methyl 2-[2-({[1-(4-chlorophenyl)-1H-pyrazol-3-yl]oxy}methyl)phenyl]-2-[(fluoromethoxy)imino]acetate] | 95%

Tested on: not listed separately
Assay: logP determination by HPLC (EEC Directive 79/831 Annex V.A8)
Assay type: physicochemical
Settings: not given
Experimental: The logP values were determined in accordance with EEC Directive 79/831 Annex V.A8 by HPLC (gradient method, acetonitrile/0.1% aqueous phosphoric acid).

Row | Compound | chromatographic logP
4 | COC(=O)C(=NOCF)c1ccccc1COc1ccn(-c2ccc(Cl)cc2)n1 [Example 1, methyl 2-[2-({[1-(4-chlorophenyl)-1H-pyrazol-3-yl]oxy}methyl)phenyl]-2-[(fluoromethoxy)imino]acetate] | 3.86
5 | CNC(=O)C(=NOCF)c1ccccc1COc1ccn(-c2ccc(Cl)cc2)n1 [Example 2, 2-[2-({[1-(4-chlorophenyl)-1H-pyrazol-3-yl]oxy}methyl)phenyl]-2-[(fluoromethoxy)imino]-N-methylacetamide] | 3.3

Same assay, conditions: HPLC, gradient method, acetonitrile/0.1% aqueous phosphoric acid

Row | logP | Compound
6 | 3.31 | CNC(=O)C(=NOCF)c1ccccc1OCc1ccn(-c2cccc(Cl)c2Cl)n1 [Example 34]
7 | 3.39 | CNC(=O)C(=NOCF)c1ccccc1OCc1ccn(-c2cccc(Br)c2)n1 [Example 5]
8 | 3.43 | CNC(=O)C(=NOCF)c1ccccc1OCc1ccn(-c2cc(Cl)ccc2Cl)n1 [Example 36]
9 | 4.5 | COC(=O)C(=NOCF)c1ccccc1OCc1ccn(-c2cc(Cl)ccc2Cl)n1 [Example 29]
10 | 3.15 | CNC(=O)C(=NOCF)c1ccccc1OCc1ccn(-c2cccc(C)c2)n1 [Example 31]
11 | 3.53 | COC(=O)C(=NOCF)c1ccccc1OCc1ccn(-c2ccccc2Cl)n1 [Example 8]
12 | 3.14 | CNC(=O)C(=NOCF)c1ccccc1OCc1ccn(-c2ccc(C)cc2)n1 [Example 41]
13 | 2.91 | CNC(=O)C(=NOCF)c1ccccc1OCc1ccn(-c2ccc(F)cc2)n1 [Example 3]
14 | 3.3 | CNC(=O)C(=NOCF)c1ccccc1OCc1ccn(-c2cccc(Cl)c2)n1 [Example 43]
15 | 2.96 | CNC(=O)C(=NOCF)c1ccccc1OCc1ccn(-c2ccccc2Cl)n1 [Example 22]
16 | 3.02 | CNC(=O)C(=NOCF)c1ccccc1OCc1ccn(-c2ccc(F)cc2F)n1 [Example 33]
17 | 3.4 | CNC(=O)C(=NOCF)c1ccccc1OCc1ccn(-c2ccc(Br)cc2)n1 [Example 6]
18 | 3.5 | CNC(=O)C(=NOCF)c1ccccc1OCc1ccn(-c2ccc(Cl)cc2Cl)n1 [Example 19]
19 | 4.09 | COC(=O)C(=NOCF)c1ccccc1OCc1ccn(-c2ccc(Cl)cc2Cl)n1 [Example 11]
20 | 3.93 | CNC(=O)C(=NOCF)c1ccccc1OCc1ccn(-c2cc(Cl)cc(Cl)c2)n1 [Example 7]
21 | 3.9 | COC(=O)C(=NOCF)c1ccccc1OCc1ccn(-c2cccc(Cl)c2Cl)n1 [Example 27]
22 | 2.93 | CNC(=O)C(=NOCF)c1ccccc1OCc1ccn(-c2ccccc2F)n1 [Example 32]

More lines, now with the values behind:

Row | Compound | logP
23 | COC(=O)C(=NOCF)c1ccccc1OCc1ccn(-c2cccc(Br)c2)n1 [Example 16] | 3.98
24 | COC(=O)C(=NOCF)c1ccccc1OCc1ccn(-c2cccc(Cl)c2)n1 [Example 37] | 3.88
25 | COC(=O)C(=NOCF)c1ccccc1OCc1ccn(-c2ccc(F)cc2F)n1 [Example 26] | 3.52
26 | COC(=O)C(=NOCF)c1ccccc1OCc1ccn(-c2ccccc2)n1 [Example 14] | 3.4
27 | COC(=O)C(=NOCF)c1ccccc1OCc1ccn(-c2cccc(C)c2)n1 [Example 30] | 3.73
28 | COC(=O)C(=NOCF)c1ccccc1OCc1ccn(-c2ccccc2F)n1 [Example 25] | 3.51
29 | COC(=O)C(=NOCF)c1ccccc1OCc1ccn(-c2ccc(F)cc2)n1 [Example 17] | 3.47
30 | CNC(=O)C(=NOCF)c1ccccc1OCc1ccn(-c2ccc(C(C)(C)C)cc2)n1 [Example 23] | 4.04
31 | CNC(=O)C(=NOCF)c1ccccc1OCc1ccn(-c2ccccc2)n1 [Example 18] | 2.83
32 | COC(=O)C(=NOCF)c1ccccc1OCc1ccn(-c2ccc(C#N)cc2)n1 [Example 9] | 3.18
33 | COC(=O)C(=NOCF)c1ccccc1OCc1ccn(-c2ccc(C)c(C)c2)n1 [Example 28] | 3.92
34 | COC(=O)C(=NOCF)c1ccccc1OCc1ccn(-c2ccc(C)cc2)n1 [Example 10] | 3.74
35 | COC(=O)C(=NOCF)c1ccccc1OCc1ccn(-c2ccc(C(C)C)cc2)n1 [Example 4] | 4.38
36 | COC(=O)C(=NOCF)c1ccccc1OCc1ccn(-c2ccc(C(C)(C)C)cc2)n1 [Example 21] | 4.63
37 | COC(=O)C(=NOCF)c1ccccc1OCc1ccn(-c2ccccc2Br)n1 [Example 12] | 3.54
38 | CNC(=O)C(=NOCF)c1ccccc1OCc1ccn(-c2ccc(C#N)cc2)n1 [Example 42] | 2.64
39 | COC(=O)C(=NOCF)c1ccccc1OCc1ccn(-c2cc(Cl)cc(Cl)c2)n1 [Example 15] | 4.52
40 | CNC(=O)C(=NOCF)c1ccccc1OCc1ccn(-c2ccc(C(C)C)cc2)n1 [Example 38] | 3.83
41 | COC(=O)C(=NOCF)c1ccccc1OCc1ccn(-c2ccc(Br)cc2)n1 [Example 13] | 3.98

Tested on: Erysiphe graminis f.sp. hordei
Assay: Erysiphe Test (barley)/protective
Assay type: in vivo
Settings: protective, application rate 250 g/ha, evaluation 7 days after inoculation
Experimental: Erysiphe Test (barley)/protective Solvent: 25 parts by weight of N,N-dimethylacetamide Emulsifier: 0.6 part by weight of alkylaryl polyglycol ether To produce a suitable preparation of active compound, 1 part by weight of active compound is mixed with the stated amounts of solvent and emulsifier, and the concentrate is diluted with water to the desired concentration. To test for protective activity, young plants are sprayed with the preparation of active compound at the stated application rate. After the spray coating has dried on, the plants are dusted with spores of Erysiphe graminis f.sp. hordei. The plants are placed in a greenhouse at a temperature of about 20° C. and a relative atmospheric humidity of about 80% to promote the development of mildew pustules.

Row | Compound | efficacy
42 | CNC(=O)C(=NOCF)c1ccccc1COc1ccn(-c2ccc(Cl)cc2)n1 [Example 2, 2-[2-({[1-(4-chlorophenyl)-1H-pyrazol-3-yl]oxy}methyl)phenyl]-2-[(fluoromethoxy)imino]-N-methylacetamide] | ≥ 98%

Tested on: Puccinia recondita
Assay: Puccinia Test (wheat)/protective
Assay type: in vivo
Settings: protective, application rate 250 g/ha, evaluation 10 days after inoculation
Experimental: Puccinia Test (wheat)/protective Solvent: 25 parts by weight of N,N-dimethylacetamide Emulsifier: 0.6 part by weight of alkylaryl polyglycol ether To produce a suitable preparation of active compound, 1 part by weight of active compound is mixed with the stated amounts of solvent and emulsifier, and the concentrate is diluted with water to the desired concentration. To test for protective activity, young plants are sprayed with the preparation of active compound at the stated application rate. After the spray coating has dried on, the plants are sprayed with a conidia suspension of Puccinia recondita. The plants remain in an incubation cabin at 20° C. and 100% relative atmospheric humidity for 48 hours. The plants are then placed in a greenhouse at a temperature of about 20° C. and a relative atmospheric humidity of 80% to promote the development of rust pustules.

Row | Compound | efficacy
43 | COC(=O)C(=NOCF)c1ccccc1COc1ccn(-c2ccc(Cl)cc2)n1 [Example 1, methyl 2-[2-({[1-(4-chlorophenyl)-1H-pyrazol-3-yl]oxy}methyl)phenyl]-2-[(fluoromethoxy)imino]acetate] | ≥ 98%
